Peptide text beside a SMILES is read from it. * marks the point of attachment. Cbz = O=C(OCc1ccccc1)*; CH2F = FC*
Test system: optic nerve axons of retinal ganglion cells
Assay: Axon regeneration after optic nerve crush injury (βIII-tubulin staining of optic nerve sections)
Format: in vivo, mouse
Conditions: intravitreal, ZVAD 300 μM and/or Nec-1 4 mM; 14 days after optic nerve injury; FIGS. 3B-3E
Method: Intravitreal injections were performed as follows. Briefly, the tip of a 33 gauge needle (Hamilton, Reno, Nev.) was carefully inserted through the sclera into the intravitreal space to reduce intraocular pressure. Then, the needle was extracted, loaded with compounds and tangentially reinserted through the sclera into the intravitreal space, inducing a self-sealing wound tunnel. After injection, the absence of choroidal bleeding was confirmed. At specified times after injury, mice were sacrificed with an overdose of sodium pentobarbital, and eyes were enucleated.
To investigate the efficacy of necrosis inhibitor and pan-caspase inhibitor in promoting axon regeneration, eight-weeks-old mice were subjected to optic nerve crush surgery as previously described. […]
Axon regeneration was assessed by obtaining longitudinal sections of the optic nerve and counting the number of axons at pre-specified distances from the injury site. […] Axons were counted manually in at least eight longitudinal sections per case at pre-specified distances from the injury site. The number of regenerating axons at various di stances are determined as described previously (Leon et al., (2000) J NEUROSCI 20: 4615-4626). […]

Structure (SMILES) | axon regeneration (axon staining beyond injury site)
CN1C(=O)NC(Cc2c[nH]c3c(Cl)cccc23)C1=O (centres unmarked) [Nec-1] | minimal effects on axon regeneration
COC(=O)CC(NC(=O)C(C)NC(=O)C(NC(=O)OCc1ccccc1)C(C)C)C(=O)CF (stereo not drawn) [ZVAD, Benzyloxycarbonyl-Val-Ala-Asp(OMe)-fluoromethylketone] (Cbz-Val-Ala-Asp(OMe)-CH2F; configuration not given here) | minimal effects on axon regeneration
